# Experimental data from US11207310B2 (PRILENIA NEUROTHERAPEUTICS LTD., priority 2016, dated 2021).
# Like-named read-outs stand apart in the source and are kept apart here.
# Test system: patients with HD
# Excerpt: The mPPT quantifies the patient's performance in physical tasks (Brown 2000). It is a standardized 9-item test (standing static balance, chair rise, lift a book and put it on a shelf, put on and remove a jacket, pick up a penny from floor, turn 360 degrees, 50 feet walk, climb one flight of stairs, climb stairs test (flights up and down)), that measures the patient's performance on functional tasks. Both the speed and accuracy at which the patients complete the items are taken into account during scoring. The maximum score of the test is 36, with higher scores indicating better performance. The Multiple Sclerosis Walking Scale (MSWS-12) was adapted to become a generic measure of walking and mobility and renamed the Walk-12.
# The secondary efficacy variable and endpoint, the Modified Physical Performance Test (mPPT), quantifies the patient's performance in physical tasks (Brown 2000). It is a standardized 9-item test that measures the patient's performance on functional tasks. Assistive devices are permitted for the tasks that require a standing position (items 6 to 9). Both the speed and accuracy at which the patients complete the items were taken into account during scoring. The maximum score of the test is 36, with higher scores indicating better performance.
# [1] = 45 mg bid, HD1 and HD2 patients, 52 weeks
# [2] = 45 mg bid, full analysis set, 26 weeks
# [3] = 45 mg bid, full analysis set, 52 weeks
# [4] = 45 mg bid, late stage HD patients with BL TFC<7, 52 weeks
# [5] = 67.5 mg bid, HD1 and HD2 patients, 52 weeks
# [6] = 67.5 mg bid, full analysis set, 26 weeks
# [7] = 67.5 mg bid, full analysis set, 52 weeks
# [8] = 67.5 mg bid, late stage HD patients with BL TFC<7, 52 weeks
# [9] = 90 mg bid, HD1 and HD2 patients, 52 weeks
# [10] = 90 mg bid, full analysis set, 26 weeks
# [11] = 90 mg bid, full analysis set, 52 weeks
# [12] = 90 mg bid, late stage HD patients with BL TFC<7, 52 weeks
# [13] = 112.5 mg bid, HD1 and HD2 patients, 52 weeks
# [14] = 112.5 mg bid, full analysis set, 26 weeks
# [15] = 112.5 mg bid, full analysis set, 52 weeks
# [16] = 112.5 mg bid, late stage HD patients with BL TFC<7, 52 weeks
structure (smiles),measurement,setting,value
"CCCN1CCC(c2cccc(S(C)(=O)=O)c2)CC1 [pridopidine, 4-[3-(methylsulfonyl)phenyl]-1-propyl-piperidine]","Change from baseline in mPPT Climb One Flight of Stairs scores, Δ to placebo",[1],0.27
same,"Change from baseline in mPPT Climb Stairs (Flights Up and Down) scores, Δ to placebo",[1],−0.01
same,"Change from baseline in mPPT Climb One Flight of Stairs scores, Δ to placebo","45 mg bid, HD1 patients, 52 weeks",−0.02
same,"Change from baseline in mPPT Climb One Flight of Stairs scores, Δ to placebo","45 mg bid, HD2 patients, 52 weeks",0.35
same,"Change from baseline in mPPT Climb Stairs (Flights Up and Down) scores, Δ to placebo",[2],−0.03
same,"Δ to placebo: mPPT 50 Feet Walk scores, change from baseline",[2],−0.02
same,Δ to placebo: mPPT Chair Rise scores,[2],0.05
same,"Δ to placebo: mPPT Climb One Flight of Stairs scores, change from baseline",[2],0.08
same,"Δ to placebo: mPPT Lift a Book and Put it on the Shelf scores, change from baseline",[2],0.14
same,"Δ to placebo: mPPT Pick up a Penny from the Floor scores, change from baseline",[2],−0.13
same,"Δ to placebo: mPPT Put on and Remove a Jacket scores, change from baseline",[2],−0.22
same,"Δ to placebo: mPPT Turn 360 Degrees scores, change from baseline",[2],0.12
same,Δ to placebo: mPPT standing static balance scores,[2],0.07
same,"Change from baseline in mPPT Climb Stairs (Flights Up and Down) scores, Δ to placebo",[3],0.17
same,"Δ to placebo: mPPT 50 Feet Walk scores, change from baseline",[3],−0.03
same,Δ to placebo: mPPT Chair Rise scores,[3],−0.05
same,"Δ to placebo: mPPT Climb One Flight of Stairs scores, change from baseline",[3],0.26
same,"Δ to placebo: mPPT Lift a Book and Put it on the Shelf scores, change from baseline",[3],0.25
same,"Δ to placebo: mPPT Pick up a Penny from the Floor scores, change from baseline",[3],0.04
same,"Δ to placebo: mPPT Put on and Remove a Jacket scores, change from baseline",[3],0.2
same,"Δ to placebo: mPPT Turn 360 Degrees scores, change from baseline",[3],−0.12
same,Δ to placebo: mPPT standing static balance scores,[3],−0.15
same,"Change from baseline in mPPT Climb One Flight of Stairs scores, Δ to placebo","45 mg bid, late stage HD patients with BL TFC 0-6, 52 weeks",0.19
same,"Change from baseline in mPPT Climb Stairs (Flights Up and Down) scores, Δ to placebo",[4],0.72
same,"Δ to placebo: mPPT Climb One Flight of Stairs scores, change from baseline",[4],0.19
same,"Change from baseline in mPPT Climb One Flight of Stairs scores, Δ to placebo",[5],0.3
same,"Change from baseline in mPPT Climb Stairs (Flights Up and Down) scores, Δ to placebo",[5],0.01
same,"Change from baseline in mPPT Climb One Flight of Stairs scores, Δ to placebo","67.5 mg bid, HD1 patients, 52 weeks",0.01
same,"Change from baseline in mPPT Climb One Flight of Stairs scores, Δ to placebo","67.5 mg bid, HD2 patients, 52 weeks",0.34
same,"Change from baseline in mPPT Climb Stairs (Flights Up and Down) scores, Δ to placebo",[6],−0.14
same,"Δ to placebo: mPPT 50 Feet Walk scores, change from baseline",[6],0
same,Δ to placebo: mPPT Chair Rise scores,[6],0.01
same,"Δ to placebo: mPPT Climb One Flight of Stairs scores, change from baseline",[6],0.11
same,"Δ to placebo: mPPT Lift a Book and Put it on the Shelf scores, change from baseline",[6],0.1
same,"Δ to placebo: mPPT Pick up a Penny from the Floor scores, change from baseline",[6],0.14
same,"Δ to placebo: mPPT Put on and Remove a Jacket scores, change from baseline",[6],0.17
same,"Δ to placebo: mPPT Turn 360 Degrees scores, change from baseline",[6],−0.06
same,Δ to placebo: mPPT standing static balance scores,[6],−0.2
same,"Change from baseline in mPPT Climb Stairs (Flights Up and Down) scores, Δ to placebo",[7],0.04
same,"Δ to placebo: mPPT 50 Feet Walk scores, change from baseline",[7],0.15
same,Δ to placebo: mPPT Chair Rise scores,[7],−0.1
same,"Δ to placebo: mPPT Climb One Flight of Stairs scores, change from baseline",[7],0.13
same,"Δ to placebo: mPPT Lift a Book and Put it on the Shelf scores, change from baseline",[7],0.17
same,"Δ to placebo: mPPT Pick up a Penny from the Floor scores, change from baseline",[7],0.09
same,"Δ to placebo: mPPT Put on and Remove a Jacket scores, change from baseline",[7],0.21
same,"Δ to placebo: mPPT Turn 360 Degrees scores, change from baseline",[7],−0.1
same,Δ to placebo: mPPT standing static balance scores,[7],−0.19
same,"Change from baseline in mPPT Climb One Flight of Stairs scores, Δ to placebo","67.5 mg bid, late stage HD patients with BL TFC 0-6, 52 weeks",−0.3
same,"Change from baseline in mPPT Climb Stairs (Flights Up and Down) scores, Δ to placebo",[8],0.16
same,"Δ to placebo: mPPT Climb One Flight of Stairs scores, change from baseline",[8],−0.3
same,"Change from baseline in mPPT Climb One Flight of Stairs scores, Δ to placebo",[9],0.22
same,"Change from baseline in mPPT Climb Stairs (Flights Up and Down) scores, Δ to placebo",[9],0.1
same,"Change from baseline in mPPT Climb One Flight of Stairs scores, Δ to placebo","90 mg bid, HD1 patients, 52 weeks",−0.06
same,"Change from baseline in mPPT Climb One Flight of Stairs scores, Δ to placebo","90 mg bid, HD2 patients, 52 weeks",0.28
same,"Change from baseline in mPPT Climb Stairs (Flights Up and Down) scores, Δ to placebo",[10],−0.08
same,"Δ to placebo: mPPT 50 Feet Walk scores, change from baseline",[10],−0.1
same,Δ to placebo: mPPT Chair Rise scores,[10],0.01
same,"Δ to placebo: mPPT Climb One Flight of Stairs scores, change from baseline",[10],0.15
same,"Δ to placebo: mPPT Lift a Book and Put it on the Shelf scores, change from baseline",[10],0.04
same,"Δ to placebo: mPPT Pick up a Penny from the Floor scores, change from baseline",[10],0.1
same,"Δ to placebo: mPPT Put on and Remove a Jacket scores, change from baseline",[10],−0.01
same,"Δ to placebo: mPPT Turn 360 Degrees scores, change from baseline",[10],0.12
same,Δ to placebo: mPPT standing static balance scores,[10],−0.1
same,"Change from baseline in mPPT Climb Stairs (Flights Up and Down) scores, Δ to placebo",[11],−0.04
same,"Δ to placebo: mPPT 50 Feet Walk scores, change from baseline",[11],−0.23
same,Δ to placebo: mPPT Chair Rise scores,[11],−0.31
same,"Δ to placebo: mPPT Climb One Flight of Stairs scores, change from baseline",[11],0.08
same,"Δ to placebo: mPPT Lift a Book and Put it on the Shelf scores, change from baseline",[11],0.22
same,"Δ to placebo: mPPT Pick up a Penny from the Floor scores, change from baseline",[11],0.14
same,"Δ to placebo: mPPT Put on and Remove a Jacket scores, change from baseline",[11],0.08
same,"Δ to placebo: mPPT Turn 360 Degrees scores, change from baseline",[11],0.04
same,Δ to placebo: mPPT standing static balance scores,[11],−0.14
same,"Change from baseline in mPPT Climb One Flight of Stairs scores, Δ to placebo","90 mg bid, late stage HD patients with BL TFC 0-6, 52 weeks",−0.26
same,"Change from baseline in mPPT Climb Stairs (Flights Up and Down) scores, Δ to placebo",[12],−0.36
same,"Δ to placebo: mPPT Climb One Flight of Stairs scores, change from baseline",[12],−0.26
same,"Change from baseline in mPPT Climb One Flight of Stairs scores, Δ to placebo",[13],0.23
same,"Change from baseline in mPPT Climb Stairs (Flights Up and Down) scores, Δ to placebo",[13],0.07
same,"Change from baseline in mPPT Climb One Flight of Stairs scores, Δ to placebo","112.5 mg bid, HD1 patients, 52 weeks",0.18
same,"Change from baseline in mPPT Climb One Flight of Stairs scores, Δ to placebo","112.5 mg bid, HD2 patients, 52 weeks",0.23
same,"Change from baseline in mPPT Climb Stairs (Flights Up and Down) scores, Δ to placebo",[14],−0.08
same,"Δ to placebo: mPPT 50 Feet Walk scores, change from baseline",[14],−0.17
same,Δ to placebo: mPPT Chair Rise scores,[14],0.12
same,"Δ to placebo: mPPT Climb One Flight of Stairs scores, change from baseline",[14],0.16
same,"Δ to placebo: mPPT Lift a Book and Put it on the Shelf scores, change from baseline",[14],0.14
same,"Δ to placebo: mPPT Pick up a Penny from the Floor scores, change from baseline",[14],0.07
same,"Δ to placebo: mPPT Put on and Remove a Jacket scores, change from baseline",[14],−0.03
same,"Δ to placebo: mPPT Turn 360 Degrees scores, change from baseline",[14],0.2
same,Δ to placebo: mPPT standing static balance scores,[14],0.05
same,"Change from baseline in mPPT Climb Stairs (Flights Up and Down) scores, Δ to placebo",[15],0.1
same,"Δ to placebo: mPPT 50 Feet Walk scores, change from baseline",[15],−0.15
same,Δ to placebo: mPPT Chair Rise scores,[15],−0.12
same,"Δ to placebo: mPPT Climb One Flight of Stairs scores, change from baseline",[15],0.11
same,"Δ to placebo: mPPT Lift a Book and Put it on the Shelf scores, change from baseline",[15],0.12
same,"Δ to placebo: mPPT Pick up a Penny from the Floor scores, change from baseline",[15],0.07
same,"Δ to placebo: mPPT Put on and Remove a Jacket scores, change from baseline",[15],−0.18
same,"Δ to placebo: mPPT Turn 360 Degrees scores, change from baseline",[15],−0.08
same,Δ to placebo: mPPT standing static balance scores,[15],−0.12
same,"Change from baseline in mPPT Climb One Flight of Stairs scores, Δ to placebo","112.5 mg bid, late stage HD patients with BL TFC 0-6, 52 weeks",−0.15
same,"Change from baseline in mPPT Climb Stairs (Flights Up and Down) scores, Δ to placebo",[16],0.31
same,"Δ to placebo: mPPT Climb One Flight of Stairs scores, change from baseline",[16],−0.15
